Experimental data taken from publication PMC7319089, “Multi-Component Comparative Pharmacokinetics in Rats After Oral Administration of Fructus aurantii Extract, Naringin, Neohesperidin, and Naringin-Neohesperidin” (Frontiers in Pharmacology, 2020).

How the values were obtained:
[1] = Pharmacokinetics in SD rats after oral administration of FA extract, NA, NHE or NA-NHE (UPLC-MS/MS of plasma, DAS 3.1); format: in vivo, Sprague-Dawley (SD) rats; settings: for AUC(0-t) / AUC(0-∞) / CL/F / Ka / V1/F / t1/2(Ka) / t1/2α / t1/2β: n = 6
Protocol: The 20 μl of β-glucuronidase and 15 μl of sulfatase were added into 50 μl of plasma sample. After vortexed for 30 s, the mixture was incubated at 37°C for 2 h in a water bath, then placed in ice water for 5 min to terminate the reaction ([Xu et al., 2019]). IS solution (20 µl, 5 μg/ml) and acetonitrile (1.0 ml) were added into the mixture and vortexed for 2 min. […] Rats were randomly divided into the following four groups (6 rats in each group): naringin (NA), neohesperidin (NHE), naringin-neohesperidin (NA-NHE), and FA extract group. The oral administration doses were selected according to the literatures ([Tong et al., 2012]; [Yang et al., 2012]; [Committee of National Pharmacopoeia of RP China, 2015]; [Wang et al., 2018]; [Zhang et al., 2018]; [Chen et al., 2019]), the contents of the five components in FA, and the preliminary experiments. The specific doses were as follows: […] The rats had free access to water during the experiment. The blood samples were then immediately centrifuged at 4,000 rpm for 10 min. The plasma was frozen and stored at −80°C until analysis. The plasma concentration of the studied compounds was determined according to the daily calibration curve.

[2] = set-up: method as in Wang et al., 2018; settings: after orally administering 30 g/kg FA decoction; ref Wang et al., 2018; cited from earlier work
[3] = SD rats, oral compatibility NA-NHE (naringin 1.85 g/kg and neohesperidin 1.81 g/kg), two-compartment parameters
[4] = SD rats, oral monomer (naringin 1.85 g/kg or neohesperidin 1.81 g/kg), two-compartment parameters
[5] = male SD rats, oral FA extract 10.8 g/kg of the original medicinal material, two-compartment model parameters

COc1ccc([C@@H]2CC(=O)c3c(O)cc(O[C@@H]4O[C@H](CO)[C@@H](O)[C@H](O)[C@H]4O[C@@H]4O[C@@H](C)[C@H](O)[C@@H](O)[C@H]4O)cc3O2)cc1O [NHE, neohesperidin]
AUC(0-t) [1, 3]: 3475.14 ± 714.19 ng·h/mL | AUC(0-∞) [1, 3]: 3557.64 ± 726.84 ng·h/mL | CL/F [1, 3]: 60.5 ± 13.3 mL/min/kg | Ka [1, 3]: 4.40 ± 0.83 h⁻¹ | V1/F [1, 3]: 4.37 ± 1.16 L/kg | t1/2(Ka) [1, 3]: 0.57 ± 0.11 h | t1/2α [1, 3]: 3.22 ± 0.42 h | t1/2β [1, 3]: 3.43 ± 0.55 h | AUC(0-t) [1, 4]: 2932.05 ± 625.03 ng·h/mL | AUC(0-∞) [1, 4]: 2988.05 ± 621.39 ng·h/mL | CL/F [1, 4]: 91.5 ± 12.2 mL/min/kg | Ka [1, 4]: 1.64 ± 0.35 h⁻¹ | V1/F [1, 4]: 4.58 ± 1.18 L/kg | t1/2(Ka) [1, 4]: 0.96 ± 0.08 h | t1/2α [1, 4]: 4.39 ± 0.47 h | t1/2β [1, 4]: 4.61 ± 0.48 h | AUC(0-t) [1, 5]: 4345.39 ± 704.69 ng·h/mL | AUC(0-∞) [1, 5]: 4421.59 ± 723.98 ng·h/mL | CL/F [1, 5]: 68.2 ± 18.3 mL/min/kg | Ka [1, 5]: 3.17 ± 0.93 h⁻¹ | V1/F [1, 5]: 7.17 ± 1.40 L/kg | t1/2(Ka) [1, 5]: 0.26 ± 0.07 h | t1/2α [1, 5]: 3.47 ± 0.51 h | t1/2β [1, 5]: 3.86 ± 0.32 h | Shape of the plasma concentration-time profile ([1]; rats, oral administration, naringin and neohesperidin determined as naringenin and hesperetin): Double-peak phenomenon | Detection in rat plasma [2]: could not been detected
